From ChEMBL document CHEMBL3991601, “The target landscape of clinical kinase drugs” (Science, 2017) come the findings set out here.

The source made the active and inactive calls.

The target of assay [1] is T1, Exosome RNA helicase MTR4 (Homo sapiens, UniProt P42285).
T1 sequence (P42285 whole entry): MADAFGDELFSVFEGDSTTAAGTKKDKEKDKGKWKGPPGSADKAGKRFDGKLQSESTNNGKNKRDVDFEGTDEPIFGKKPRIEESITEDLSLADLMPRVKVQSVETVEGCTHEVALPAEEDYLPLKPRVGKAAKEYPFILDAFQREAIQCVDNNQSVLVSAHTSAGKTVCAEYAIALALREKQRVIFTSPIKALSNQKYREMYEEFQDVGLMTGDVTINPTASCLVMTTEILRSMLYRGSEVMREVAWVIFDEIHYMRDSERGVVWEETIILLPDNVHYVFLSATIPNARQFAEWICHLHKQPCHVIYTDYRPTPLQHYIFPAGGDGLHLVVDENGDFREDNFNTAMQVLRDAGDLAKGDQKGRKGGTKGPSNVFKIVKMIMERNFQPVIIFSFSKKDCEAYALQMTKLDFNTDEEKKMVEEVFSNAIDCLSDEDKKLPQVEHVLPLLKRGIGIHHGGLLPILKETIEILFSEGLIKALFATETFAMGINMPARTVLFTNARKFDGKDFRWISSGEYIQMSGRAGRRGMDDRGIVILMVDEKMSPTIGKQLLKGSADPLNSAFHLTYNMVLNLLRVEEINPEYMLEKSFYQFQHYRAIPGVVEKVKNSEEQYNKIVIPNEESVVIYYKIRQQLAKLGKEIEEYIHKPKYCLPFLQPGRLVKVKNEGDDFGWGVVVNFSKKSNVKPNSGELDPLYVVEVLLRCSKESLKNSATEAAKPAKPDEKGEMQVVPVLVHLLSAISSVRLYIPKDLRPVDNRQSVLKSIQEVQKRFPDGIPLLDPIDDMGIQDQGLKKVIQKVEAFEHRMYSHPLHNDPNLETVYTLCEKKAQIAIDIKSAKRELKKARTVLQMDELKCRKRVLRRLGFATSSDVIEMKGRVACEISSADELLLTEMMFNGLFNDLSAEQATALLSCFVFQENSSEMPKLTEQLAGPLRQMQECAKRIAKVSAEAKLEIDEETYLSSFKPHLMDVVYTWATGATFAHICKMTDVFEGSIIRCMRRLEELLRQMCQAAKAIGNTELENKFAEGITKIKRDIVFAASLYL

Assay [2] deals with Serine/threonine-protein kinase SIK3 (Homo sapiens, UniProt Q9Y2K2).
Chain of Serine/threonine-protein kinase SIK3 (Q9Y2K2 whole entry): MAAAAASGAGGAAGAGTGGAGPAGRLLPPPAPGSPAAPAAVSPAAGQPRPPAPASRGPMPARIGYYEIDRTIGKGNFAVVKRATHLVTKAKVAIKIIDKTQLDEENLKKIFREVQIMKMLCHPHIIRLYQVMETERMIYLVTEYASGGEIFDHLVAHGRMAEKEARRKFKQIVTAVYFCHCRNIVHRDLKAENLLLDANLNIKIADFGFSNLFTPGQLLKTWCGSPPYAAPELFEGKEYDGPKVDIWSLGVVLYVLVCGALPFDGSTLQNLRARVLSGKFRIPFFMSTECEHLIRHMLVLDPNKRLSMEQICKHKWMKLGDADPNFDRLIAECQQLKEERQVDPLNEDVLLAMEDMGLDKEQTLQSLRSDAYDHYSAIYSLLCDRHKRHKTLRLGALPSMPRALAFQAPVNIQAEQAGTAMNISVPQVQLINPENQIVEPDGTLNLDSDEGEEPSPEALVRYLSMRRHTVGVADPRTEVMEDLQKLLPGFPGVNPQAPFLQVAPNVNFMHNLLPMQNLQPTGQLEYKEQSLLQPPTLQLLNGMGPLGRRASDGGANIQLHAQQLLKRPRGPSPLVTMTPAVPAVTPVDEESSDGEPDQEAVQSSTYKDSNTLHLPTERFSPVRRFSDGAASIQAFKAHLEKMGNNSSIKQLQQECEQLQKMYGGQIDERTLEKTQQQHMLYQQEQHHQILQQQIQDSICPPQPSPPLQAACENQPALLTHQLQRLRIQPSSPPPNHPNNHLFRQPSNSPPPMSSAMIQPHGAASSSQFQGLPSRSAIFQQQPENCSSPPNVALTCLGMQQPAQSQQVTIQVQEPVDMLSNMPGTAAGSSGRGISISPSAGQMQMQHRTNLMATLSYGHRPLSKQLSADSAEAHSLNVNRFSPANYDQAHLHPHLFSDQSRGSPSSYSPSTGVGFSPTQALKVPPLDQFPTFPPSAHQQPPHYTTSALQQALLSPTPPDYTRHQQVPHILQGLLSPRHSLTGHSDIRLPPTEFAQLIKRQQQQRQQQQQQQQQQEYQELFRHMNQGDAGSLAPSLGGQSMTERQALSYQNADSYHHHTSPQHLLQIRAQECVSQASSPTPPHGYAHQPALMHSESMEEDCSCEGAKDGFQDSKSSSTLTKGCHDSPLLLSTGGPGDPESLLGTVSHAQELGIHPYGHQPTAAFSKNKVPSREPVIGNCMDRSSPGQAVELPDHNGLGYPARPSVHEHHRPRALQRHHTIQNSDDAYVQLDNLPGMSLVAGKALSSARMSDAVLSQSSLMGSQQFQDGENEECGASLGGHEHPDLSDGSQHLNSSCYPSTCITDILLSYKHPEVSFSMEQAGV
Assay [3] addresses Mitogen-activated protein kinase kinase kinase 1 (Homo sapiens, UniProt Q13233).
Assay [4] addresses T2, Ferrochelatase, mitochondrial (Homo sapiens, UniProt P22830).
T2 sequence (P22830 whole entry): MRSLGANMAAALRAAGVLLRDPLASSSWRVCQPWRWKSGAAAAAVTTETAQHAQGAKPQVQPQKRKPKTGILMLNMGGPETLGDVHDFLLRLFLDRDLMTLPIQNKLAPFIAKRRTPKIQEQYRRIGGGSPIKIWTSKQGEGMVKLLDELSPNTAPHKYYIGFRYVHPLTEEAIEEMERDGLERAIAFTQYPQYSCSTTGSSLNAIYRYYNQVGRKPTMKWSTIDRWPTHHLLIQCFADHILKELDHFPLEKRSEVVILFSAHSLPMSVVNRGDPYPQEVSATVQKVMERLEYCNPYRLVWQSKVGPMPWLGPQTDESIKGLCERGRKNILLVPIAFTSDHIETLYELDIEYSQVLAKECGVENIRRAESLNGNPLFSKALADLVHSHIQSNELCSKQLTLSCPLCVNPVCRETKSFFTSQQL

Assay [5] addresses Rho-associated protein kinase 2 (Homo sapiens, UniProt O75116).
The target of assay [6] is Bone morphogenetic protein receptor type-1A (Homo sapiens, UniProt P36894).
Chain of Bone morphogenetic protein receptor type-1A (P36894 whole entry): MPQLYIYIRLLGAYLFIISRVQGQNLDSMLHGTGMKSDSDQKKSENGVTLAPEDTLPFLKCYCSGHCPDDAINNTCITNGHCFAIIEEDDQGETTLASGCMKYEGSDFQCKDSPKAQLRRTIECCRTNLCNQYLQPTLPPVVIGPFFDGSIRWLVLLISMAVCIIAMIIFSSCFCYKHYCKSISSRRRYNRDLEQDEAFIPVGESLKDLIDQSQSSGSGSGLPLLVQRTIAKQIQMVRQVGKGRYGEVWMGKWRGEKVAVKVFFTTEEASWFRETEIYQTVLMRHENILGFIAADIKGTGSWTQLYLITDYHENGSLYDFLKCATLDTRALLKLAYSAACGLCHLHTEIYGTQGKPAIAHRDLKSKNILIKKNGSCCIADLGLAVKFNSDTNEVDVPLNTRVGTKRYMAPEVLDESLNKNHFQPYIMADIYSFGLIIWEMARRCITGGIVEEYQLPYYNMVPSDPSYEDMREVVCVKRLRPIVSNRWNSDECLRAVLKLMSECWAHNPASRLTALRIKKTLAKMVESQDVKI
For a further assay, the target named is T3, Glycine--tRNA ligase (Homo sapiens, UniProt P41250).
T3 sequence (P41250 whole entry): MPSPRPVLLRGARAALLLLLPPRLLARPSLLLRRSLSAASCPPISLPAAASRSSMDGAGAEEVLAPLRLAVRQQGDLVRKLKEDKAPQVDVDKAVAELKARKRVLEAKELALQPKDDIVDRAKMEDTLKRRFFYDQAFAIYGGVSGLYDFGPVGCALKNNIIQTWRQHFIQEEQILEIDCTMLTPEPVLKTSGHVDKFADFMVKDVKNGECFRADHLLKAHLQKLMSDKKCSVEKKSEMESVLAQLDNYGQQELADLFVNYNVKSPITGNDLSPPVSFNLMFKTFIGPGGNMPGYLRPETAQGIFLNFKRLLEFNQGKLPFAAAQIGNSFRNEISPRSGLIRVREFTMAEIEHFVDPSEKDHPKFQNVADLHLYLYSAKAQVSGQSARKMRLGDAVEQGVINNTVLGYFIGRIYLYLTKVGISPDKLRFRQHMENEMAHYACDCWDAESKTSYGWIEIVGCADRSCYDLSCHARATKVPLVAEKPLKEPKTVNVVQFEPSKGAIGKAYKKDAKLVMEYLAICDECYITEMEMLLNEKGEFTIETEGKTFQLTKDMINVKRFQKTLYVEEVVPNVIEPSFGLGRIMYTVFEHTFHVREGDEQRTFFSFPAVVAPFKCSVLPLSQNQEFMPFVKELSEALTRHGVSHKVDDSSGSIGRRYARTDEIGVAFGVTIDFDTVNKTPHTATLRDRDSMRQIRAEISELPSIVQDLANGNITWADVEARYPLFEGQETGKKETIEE

The target of assay [7] is Insulin-like growth factor 1 receptor (Homo sapiens, UniProt P08069).
Chain of Insulin-like growth factor 1 receptor (P08069 31-736 limits assumed): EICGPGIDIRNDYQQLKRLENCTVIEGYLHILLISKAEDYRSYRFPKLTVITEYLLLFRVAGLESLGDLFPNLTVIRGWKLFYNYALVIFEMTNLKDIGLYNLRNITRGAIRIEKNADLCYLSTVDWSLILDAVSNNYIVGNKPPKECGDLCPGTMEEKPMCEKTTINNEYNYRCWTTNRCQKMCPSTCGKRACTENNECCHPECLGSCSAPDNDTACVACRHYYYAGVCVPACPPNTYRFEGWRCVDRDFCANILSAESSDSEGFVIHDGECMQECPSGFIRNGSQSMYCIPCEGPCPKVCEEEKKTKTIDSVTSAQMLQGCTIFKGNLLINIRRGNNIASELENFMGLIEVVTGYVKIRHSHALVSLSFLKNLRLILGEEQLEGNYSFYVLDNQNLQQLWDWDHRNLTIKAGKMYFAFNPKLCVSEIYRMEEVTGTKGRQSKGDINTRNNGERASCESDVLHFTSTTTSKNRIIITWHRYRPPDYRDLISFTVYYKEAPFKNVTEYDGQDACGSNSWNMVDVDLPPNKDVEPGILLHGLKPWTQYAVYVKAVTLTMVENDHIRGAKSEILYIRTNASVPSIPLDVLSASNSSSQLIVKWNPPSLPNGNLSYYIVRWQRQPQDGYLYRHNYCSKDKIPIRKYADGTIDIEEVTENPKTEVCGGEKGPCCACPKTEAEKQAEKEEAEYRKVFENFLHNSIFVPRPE
Chain of Insulin-like growth factor 1 receptor (P08069 741-1367 limits assumed): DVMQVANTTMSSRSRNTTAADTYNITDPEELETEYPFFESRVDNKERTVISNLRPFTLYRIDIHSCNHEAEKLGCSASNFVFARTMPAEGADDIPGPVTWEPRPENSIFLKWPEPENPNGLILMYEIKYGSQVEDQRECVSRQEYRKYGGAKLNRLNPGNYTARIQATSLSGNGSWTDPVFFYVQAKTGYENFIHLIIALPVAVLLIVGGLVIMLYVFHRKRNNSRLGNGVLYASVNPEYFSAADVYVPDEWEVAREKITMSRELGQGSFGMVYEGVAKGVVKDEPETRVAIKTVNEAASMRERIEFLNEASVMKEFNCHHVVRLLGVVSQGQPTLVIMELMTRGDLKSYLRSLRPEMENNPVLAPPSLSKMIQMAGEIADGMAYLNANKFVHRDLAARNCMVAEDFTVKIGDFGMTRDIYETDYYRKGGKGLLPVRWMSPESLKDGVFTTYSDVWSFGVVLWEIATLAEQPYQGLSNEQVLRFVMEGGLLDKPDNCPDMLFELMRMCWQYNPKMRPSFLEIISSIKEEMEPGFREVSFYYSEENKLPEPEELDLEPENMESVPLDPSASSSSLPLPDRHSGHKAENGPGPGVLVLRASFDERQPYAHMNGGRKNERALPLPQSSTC
Another assay concerns the target LIM domain kinase 2 (Homo sapiens, UniProt P53671).
The next assay deals with T4, Rab-like protein 3 (Homo sapiens, UniProt Q5HYI8).
T4 sequence (Q5HYI8 whole entry): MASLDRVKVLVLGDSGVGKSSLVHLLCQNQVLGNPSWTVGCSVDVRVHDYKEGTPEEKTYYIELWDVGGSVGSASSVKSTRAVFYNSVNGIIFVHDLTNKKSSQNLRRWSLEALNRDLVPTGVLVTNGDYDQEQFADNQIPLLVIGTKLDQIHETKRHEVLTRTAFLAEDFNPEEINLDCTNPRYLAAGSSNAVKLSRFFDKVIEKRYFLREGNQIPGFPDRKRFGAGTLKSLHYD
Further: in the data inactive means no Kd found up to 30 µM.

Chain of Rho-associated protein kinase 2 (O75116 whole entry): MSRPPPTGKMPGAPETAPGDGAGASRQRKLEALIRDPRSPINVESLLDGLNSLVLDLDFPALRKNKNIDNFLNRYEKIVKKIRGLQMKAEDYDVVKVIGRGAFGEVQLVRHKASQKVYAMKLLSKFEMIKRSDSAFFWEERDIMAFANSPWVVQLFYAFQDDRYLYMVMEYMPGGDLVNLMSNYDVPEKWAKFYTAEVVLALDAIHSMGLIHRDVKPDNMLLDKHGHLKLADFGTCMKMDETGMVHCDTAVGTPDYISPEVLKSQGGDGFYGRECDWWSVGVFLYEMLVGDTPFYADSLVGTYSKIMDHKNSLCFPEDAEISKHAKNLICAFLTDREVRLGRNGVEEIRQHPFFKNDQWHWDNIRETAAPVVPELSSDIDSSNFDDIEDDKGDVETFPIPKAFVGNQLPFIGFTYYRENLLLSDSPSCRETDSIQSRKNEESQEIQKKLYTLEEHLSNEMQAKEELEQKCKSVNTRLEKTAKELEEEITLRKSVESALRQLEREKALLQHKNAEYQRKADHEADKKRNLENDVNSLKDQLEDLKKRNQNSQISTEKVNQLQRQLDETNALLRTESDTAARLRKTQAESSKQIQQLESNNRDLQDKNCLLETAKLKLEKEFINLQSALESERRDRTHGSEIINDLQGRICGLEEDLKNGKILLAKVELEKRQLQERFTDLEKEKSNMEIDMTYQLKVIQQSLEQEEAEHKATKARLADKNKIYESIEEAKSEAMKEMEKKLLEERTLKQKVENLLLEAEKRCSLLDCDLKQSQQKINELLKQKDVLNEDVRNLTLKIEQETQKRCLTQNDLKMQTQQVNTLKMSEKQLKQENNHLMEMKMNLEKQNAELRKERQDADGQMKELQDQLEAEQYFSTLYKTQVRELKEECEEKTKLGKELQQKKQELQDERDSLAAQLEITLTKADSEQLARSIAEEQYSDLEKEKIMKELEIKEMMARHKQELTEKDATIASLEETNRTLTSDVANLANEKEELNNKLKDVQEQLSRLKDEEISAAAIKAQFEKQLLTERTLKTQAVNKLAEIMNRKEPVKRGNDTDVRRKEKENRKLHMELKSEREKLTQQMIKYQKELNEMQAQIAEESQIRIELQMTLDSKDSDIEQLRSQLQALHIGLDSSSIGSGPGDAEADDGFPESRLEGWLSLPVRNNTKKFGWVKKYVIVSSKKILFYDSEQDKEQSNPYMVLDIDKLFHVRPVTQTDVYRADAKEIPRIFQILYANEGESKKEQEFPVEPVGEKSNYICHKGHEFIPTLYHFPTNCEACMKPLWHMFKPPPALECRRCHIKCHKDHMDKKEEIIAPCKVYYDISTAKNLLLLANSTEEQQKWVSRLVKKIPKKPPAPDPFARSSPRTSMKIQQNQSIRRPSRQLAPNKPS

On to `Cc1cc(C(=O)Nc2cc(Oc3ccc4nc(NC(=O)C5CC5)cn4n3)ccc2C)n(C)n1` [TAK-593], for which the Kd in assay [1], in assay [2], in assay [3], in assay [4], in [5] and in [6] was > 30 µM (inactive) throughout. Further, the Kd (on Glycine--tRNA ligase; in assay [7]; at LIM domain kinase 2; on Rab-like protein 3) was > 30 µM (inactive) each time.
For the compound `C[C@@H]1COC(Nc2ccc3ncnc(Nc4ccc(OCc5nccs5)c(Cl)c4)c3c2)=N1` [VARLITINIB], the Kd in [1] was > 30 µM (inactive); in assay [2] it was > 30 µM (inactive); in assay [3], > 30 µM (inactive); in assay [4], 76.4 µM; in assay [5], > 30 µM (inactive); in assay [6], > 30 µM (inactive). Besides, the Kd (at Glycine--tRNA ligase; in assay [7]; at LIM domain kinase 2; at Rab-like protein 3) was > 30 µM (inactive) each time.
As for `CCc1cc2c(cc1N1CCC(N3CCOCC3)CC1)C(C)(C)c1[nH]c3cc(C#N)ccc3c1C2=O` [ALECTINIB], the Kd in [1], in [2], in assay [3], in assay [4], in assay [5] and in [6] was > 30 µM (inactive) each time. Besides, the Kd (on Glycine--tRNA ligase; in assay [7]; at LIM domain kinase 2; at Rab-like protein 3) was > 30 µM (inactive) each time.
For `C#Cc1cccc(Nc2ncnc3cc4c(cc23)OCCOCCOCCO4)c1` [ICOTINIB], the Kd was > 30 µM (inactive) in [1]; > 30 µM (inactive) in assay [2]; 4.13 µM (active) in [3]; > 30 µM (inactive) in assay [4]; > 30 µM (inactive) in assay [5]; > 30 µM (inactive) in assay [6]. Also, the Kd (at Glycine--tRNA ligase; in [7]; on LIM domain kinase 2; at Rab-like protein 3) was > 30 µM (inactive) throughout.
With `Cn1c(=O)c(F)c(Nc2ccc(I)cc2F)c2c(=O)n(C[C@@H](O)CO)cnc21` [TAK-733], the Kd in assay [1], in [2], in assay [3], in assay [4], in assay [5] and in assay [6] was > 30 µM (inactive) each time. The Kd (on Glycine--tRNA ligase; in assay [7]; at LIM domain kinase 2; at Rab-like protein 3) was > 30 µM (inactive) throughout.
Consider `COc1cc2ncnc3c2cc1OCCCCCN(C)Cc1ccc(Br)cc1N3` [JNJ-26483327], for which the Kd was > 30 µM (inactive) in assay [1]; > 30 µM (inactive) in [2]; > 30 µM (inactive) in assay [3]; 3.97 µM in assay [4]; > 30 µM (inactive) in [5]; > 30 µM (inactive) in assay [6]. The Kd (on Glycine--tRNA ligase; in assay [7]; on LIM domain kinase 2; on Rab-like protein 3) was > 30 µM (inactive) in each case.
Regarding `CCOc1ccn(-c2ccc(F)cc2)c(=O)c1C(=O)Nc1ccc(Oc2ccnc(N)c2Cl)c(F)c1` [BMS-777607], the Kd in [1], in [2], in assay [3], in assay [4], in assay [5] and in assay [6] was > 30 µM (inactive) each time. Besides, the Kd (at Glycine--tRNA ligase; in assay [7]; at LIM domain kinase 2; on Rab-like protein 3) was > 30 µM (inactive) each time.
With `FC(F)(F)c1ccc(CNc2ccc(Cc3c[nH]c4ncc(Cl)cc34)cn2)cn1` [PEXIDARTINIB], the Kd in assay [1], in [2], in [3], in [4], in assay [5] and in [6] was > 30 µM (inactive) in each case. In addition, the Kd (at Glycine--tRNA ligase; in assay [7]; on LIM domain kinase 2; on Rab-like protein 3) was > 30 µM (inactive) each time.
Consider `COc1ccc2c(OCc3nnc4ccc(-c5ccccc5)nn34)ccnc2c1` [AMG-208], for which the Kd in assay [1], in [2], in assay [3], in assay [4], in assay [5] and in assay [6] was > 30 µM (inactive) throughout. The Kd (at Glycine--tRNA ligase; in assay [7]; at LIM domain kinase 2; on Rab-like protein 3) was > 30 µM (inactive) throughout.
As to `Cc1cc(-c2cc(OC(=O)c3ccccc3)ccc2Cl)cc2nnc(Nc3ccc(OCCN4CCCC4)cc3)nc12` [TG100-801], the Kd in [1], in assay [2], in assay [3], in assay [4], in assay [5] and in [6] was > 30 µM (inactive) each time. Moreover, the Kd (at Glycine--tRNA ligase; in assay [7]; at LIM domain kinase 2; on Rab-like protein 3) was > 30 µM (inactive) in each case.
As for `O=C(NC[C@H](O)CO)c1ccncc1Nc1ccc(I)cc1F` [PIMASERTIB], the Kd in assay [1], in [2], in assay [3], in [4], in assay [5] and in assay [6] was > 30 µM (inactive) in each case. The Kd (on Glycine--tRNA ligase; in assay [7]; on LIM domain kinase 2; at Rab-like protein 3) was > 30 µM (inactive) each time.
